A word on the IC50: it is the midpoint of a concentration-inhibition curve.

The source made the active and inactive calls. The calls are words filed in the database; no cut-off is given here.

Data set [1] concerns Hep 3B2. The data set is described as follows: Induction of autophagic flux in human Hep3B cells assessed as rescue of LC3-II accumulation at 10 uM incubated for 48 hrs in presence of gamabufotalin by Western blot analysis. Type of data set: functional, cell-based.
Data set [2] relates to Hep 3B2. The experiment in a line: Induction of apoptosis in human Hep3B cells assessed as early apoptotic cells at 10 nM incubated for 48 hrs by Annexin V-FITC/PI staining based flow cytometry method (reference value: 1.3%). The data set is classed as functional.
Data set [3] relates to Huh-7. The experiment in a line: Induction of apoptosis in human Huh-7 cells assessed as late apoptotic cells at 10 nM incubated for 48 hrs in presence of gamabufotalin by Annexin V-FITC/PI staining based flow cytometry method (reference value: 4.7%). Type of data set: functional. Background: A flow cytometer gives signals particle by particle.
The test system of data set [4] is Hep 3B2. The experiment in a line: Induction of apoptosis in human Hep3B cells assessed as increase in cleaved PARP level at 10 nM incubated for 48 hrs in presence of gamabufotalin by immunoblot analysis. Type of data set: functional, cell-based.
For data set [5], the system named is Hep 3B2. The experiment in a line: Induction of apoptosis in human Hep3B cells assessed as increase in cleaved caspase-3 level at 10 nM incubated for 48 hrs in presence of gamabufotalin by immunoblot analysis. The data set is classed as functional, cell-based. (A western blot detects proteins with antibodies after separation by electrophoresis.)
Data set [6] has as its system Hep 3B2. The experiment in a line: Induction of autophagy in human Hep3B cells assessed as rescue of ULK1 phosphorylation level at upto 10 nM incubated for 48 hrs in presence of gamabufotalin by immunoblot method. The data set is classed as functional, cell-based.
In data set [7] the test system is Huh-7. The data set is described as follows: Antiproliferative activity against human Huh-7 cells assessed as cell viability incubated for 24 hrs by CCK-8. To be noted: Huh-7, 24 h. The data set is classed as functional, cell-based.
Data set [8] concerns Hep 3B2. The data set is described as follows: Induction of morphological changes in human Hep3B cells assessed as round cell morphology at upto 25 nM incubated for 48 hrs by bright field imaging analysis. Type of data set: functional, cell-based.
In data set [9] the test system is Hep 3B2. The experiment in a line: Induction of apoptosis in human Hep3B cells assessed as viable cells at 15 nM incubated for 48 hrs by Annexin V-FITC/PI staining based flow cytometry method (reference value: 93.3%). The data set is classed as functional. To be noted: read-out: Activity.
Data set [10] concerns Hep 3B2. The experiment in a line: Induction of apoptosis in human Hep3B cells assessed as early apoptotic cells at 25 nM incubated for 48 hrs by Annexin V-FITC/PI staining based flow cytometry method (reference value: 3.9%). The data set is classed as functional.
Data set [11] deals with Hep 3B2. The experiment in a line: Induction of apoptosis in human Hep3B cells assessed as late apoptotic cells at 20 nM incubated for 48 hrs by Annexin V-FITC/PI staining based flow cytometry method (reference value: 2.6%). The data set is classed as functional.
In data set [12] the test system is Hep 3B2. The experiment in a line: Induction of apoptosis in human Hep3B cells assessed as increase in cleaved PARP expression at upto 25 nM incubated for 48 hrs by Western blot analysis. The data set is classed as functional, cell-based.
Data set [13] deals with Huh-7. The data set is described as follows: Induction of apoptosis in human Huh-7 cells assessed as increase in cleaved caspase-3 expression at upto 25 nM incubated for 48 hrs by Western blot analysis. Type of data set: functional, cell-based.
Data set [14] deals with Hep 3B2. The data set is described as follows: Induction of apoptosis in human Hep3B cells assessed as necrotic cells at 25 nM measured after 48 hrs by annexin V-FITC/Propidium iodide staining based flow cytometric analysis (reference value: 0.3%). The data set is classed as functional.
The test system of data set [15] is Huh-7. The data set is described as follows: Induction of apoptosis in human Huh-7 cells assessed as early apoptotic cells at 25 nM measured after 48 hrs in presence of z-VAD-FMK by annexin V-FITC/Propidium iodide staining based flow cytometric analysis (reference value: 2.2%). Type of data set: functional.
In data set [16] the test system is Huh-7. The experiment in a line: Induction of autophagic flux in human Huh-7 cells harbouring mCherry-egfp-LC3 assessed as increase in yellow puncta at 25 nM incubated for 15 mins by laser scanning confocal microscopic analysis. Type of data set: functional, cell-based.
The subject of data set [17] is Huh-7. The experiment in a line: Induction of autophagic flux in human Huh-7 cells assessed as increase in intracellular vesicles at 25 nM incubated for 48 hrs by transmission electron microscopic analysis. The data set is classed as functional, cell-based.
The test system of data set [18] is Huh-7. The experiment in a line: Induction of autophagic flux in human Huh-7 cells assessed as increase in LC3-II expression at upto 25 nM incubated for 48 hrs by Western blot analysis. The data set is classed as functional, cell-based.
The subject of data set [19] is Hep 3B2. The experiment in a line: Induction of apoptosis in human Hep3B cells assessed as necrotic cells at 25 nM incubated for 48 hrs by Annexin V-FITC/PI staining based flow cytometry method (reference value: 1.2%). The data set is classed as functional.
Data set [20] has as its system Huh-7. The experiment in a line: Induction of apoptosis in human Huh-7 cells assessed as early apoptotic cells at 25 nM incubated for 48 hrs in presence of chloroquine by Annexin V-FITC/PI staining based flow cytometry method (reference value: 2.8%). Type of data set: functional.
Data set [21] deals with Hep 3B2. The data set is described as follows: Induction of apoptosis in human Hep3B cells assessed as increase in PARP level at 25 nM incubated for 48 hrs in presence of chloroquine by immunoblot analysis. Type of data set: functional, cell-based.
The subject of data set [22] is Hep 3B2. The data set is described as follows: Induction of apoptosis in human Hep3B cells assessed as reduction in Bcl-2 level at 25 nM incubated for 48 hrs in presence of chloroquine by immunoblot analysis. The data set is classed as functional, cell-based.
In data set [23] the test system is Hep 3B2. The data set is described as follows: Induction of apoptosis in human Hep3B cells assessed as viable cells at 25 nM incubated for 48 hrs by Annexin V-FITC/PI staining based flow cytometry method (Rvb =95.7%). To be noted: read-out: Activity. Type of data set: functional.
The test system of data set [24] is Hep 3B2. The data set is described as follows: Induction of apoptosis in human Hep3B cells assessed as early apoptotic cells at 25 nM measured after 48 hrs by Annexin V-FITC/PI staining based flow cytometry method (reference value: 1.3%). The data set is classed as functional.
Data set [25] concerns Hep 3B2. The data set is described as follows: Induction of apoptosis in human Hep3B cells assessed as necrotic cells at 25 nM incubated for 48 hrs in presence of 4,6-dimorpholino-N-(4-nitrophenyl)-1,3,5-triazin-2-amine by Annexin V-FITC/PI staining based flow cytometry method (reference value: 0.7%). The data set is classed as functional.
The test system of data set [26] is Hep 3B2. The data set is described as follows: Induction of apoptosis in human Hep3B cells assessed as upregulation of PARP level […] incubated for 48 hrs in presence of 4,6-dimorpholino-N-(4-nitrophenyl)-1,3,5-triazin-2-amine by immunoblot analysis. The data set is classed as functional, cell-based.
For data set [27], the system named is Hep 3B2. The data set is described as follows: Induction of apoptosis in human Hep3B cells assessed as upregulation of cleaved caspase-3 level […] incubated for 48 hrs in presence of 4,6-dimorpholino-N-(4-nitrophenyl)-1,3,5-triazin-2-amine by immunoblot analysis. The data set is classed as functional, cell-based.
In data set [28] the test system is Hep 3B2. The data set is described as follows: Induction of apoptosis in human Hep3B cells assessed as upregulation of bax level […] incubated for 48 hrs in presence of 4,6-dimorpholino-N-(4-nitrophenyl)-1,3,5-triazin-2-amine by immunoblot analysis. Type of data set: functional, cell-based.
Data set [29] deals with Hep 3B2. The data set is described as follows: Induction of autophagy in human Hep3B cells assessed as reduction in mTOR phosphorylation level incubated for 48 hrs by immunoblot method. The data set is classed as functional, cell-based. To be noted: dose 0-25 nM.
Data set [30] concerns Hep 3B2. The experiment in a line: Induction of autophagy in human Hep3B cells assessed as rescue of ULK1 phosphorylation level at upto 25 nM incubated for 48 hrs in presence of chloroquine by immunoblot method. Type of data set: functional, cell-based.
In data set [31] the test system is Hep 3B2. The experiment in a line: Induction of autophagy in human Hep3B cells assessed as downregulation of LC3II/LC3I ratio at 25 uM incubated for 48 hrs in presence of 4,6-dimorpholino-N-(4-nitrophenyl)-1,3,5-triazin-2-amine by immunoblot analysis. Type of data set: functional, cell-based.
For data set [32], the system named is Hep 3B2. The experiment in a line: Antitumor activity against human Hep3B cells xenografted in nude mouse model assessed as upregulation of caspase-3 expression at 5 mg/kg,ip administered every second day for 3 weeks by Western blot analysis. Type of data set: functional, organism-based. On the technique in general: A xenograft is tissue or cells of one species grown in another, often human tumour cells in immunodeficient mice.

Data set [33] relates to Hep 3B2. The data set is described as follows: Antitumor activity against human Hep3B cells xenografted in nude mouse model assessed as downregulation of Bcl-2 expression at 5 mg/kg,ip administered every second day for 3 weeks by Western blot analysis. Type of data set: functional, organism-based.
Data set [34] in a line: Toxicity in mouse assessed as effect on serum BUN level at 5 mg/kg,ip administered every second day for 3 weeks by H and E staining based microscopic method. The data set is classed as organism-based. To be noted: in vivo, 504 h.

Take `CCN(CC)CCCC(C)Nc1ccnc2cc(Cl)ccc12` (centres undefined) [CHLOROQUINE]: the result with Hep 3B2 [1], in the data set on Hep 3B2 [4], with Hep 3B2 [5] and in the data set with Hep 3B2 [6] was Active. In addition, the Activity with Hep 3B2 [2] is 1.5%; with Huh-7 [3], 19.1%.

Consider `C[C@]12CC[C@H](O)C[C@H]1CC[C@@H]1[C@@H]2[C@H](O)C[C@]2(C)[C@@H](c3ccc(=O)oc3)CC[C@]12O` [GAMABUFOTALIN], for which the IC50 in the data set on Huh-7 [7] was found to be 23 nM. The result in the data set on Hep 3B2 [8], in the data set with Hep 3B2 [12], with Huh-7 [13], in the data set on Huh-7 [16], with Huh-7 [17] and in the data set with Huh-7 [18] was Active. For the same molecule, the result in the data set on Hep 3B2 [21], with Hep 3B2 [22], with Hep 3B2 [26], in the data set on Hep 3B2 [27], with Hep 3B2 [28] and in the data set on Hep 3B2 [30] was Active. In addition, the outcome in the data set on Hep 3B2 [31], in the data set with Hep 3B2 [32] and in the data set with Hep 3B2 [33] was Active. Besides, the viability at 0.015 µM with Hep 3B2 [9] came out at 88.2%. Also, the Activity is 9.3% in the data set with Hep 3B2 [10]; 5.2% in the data set on Hep 3B2 [11]; 0.6% in the data set on Hep 3B2 [14]; 3.3% in the data set on Huh-7 [15]; 0.6% in the data set on Hep 3B2 [19]; 12.1% with Huh-7 [20]. The Activity was 11.4% in the data set on Hep 3B2 [24], 1.7% in the data set with Hep 3B2 [25], “Dose-Dependent Effect” with Hep 3B2 [29] and “Non-Toxic” in data set [34]. Further, the viability at 0.025 µM in the data set on Hep 3B2 [23] was 77.2%.

Source of the values: ChEMBL document CHEMBL5257089, “Gamabufotalin Induces Apoptosis and Cytoprotective Autophagy through the mTOR Signaling Pathway in Hepatocellular Carcinoma” (J Nat Prod, 2023).
